Results on one compound are retold here after US6858414B2, “Multistage process for the preparation of highly pure deferoxamine mesylate salt” (Biogal Gyógyszergyár Rt., priority 1999, dated 2005).

For data set [1] the following is noted: association constant; cited from earlier work.
A short description of data set [2]: stability as solid and in concentrated solution. It counts as physicochemical.
The conditions of data set [3]: cited from earlier work.
Data set [4] concerns secondary iron overload from multiple transfusions. As to conditions: cited from earlier work.
For data set [5] the following is noted: association constant; cited from earlier work. This is another data set of the same source.

In the case of `CC(=O)N(O)CCCCCNC(=O)CCC(=O)N(O)CCCCCNC(=O)CCC(=O)N(O)CCCCCN` [Deferoxamine B, N′-[5-[[4-[[5-(acetylhydroxyamino)pentyl]amino]-1,4-dioxobutyl]hydroxyamino]pentyl]-N-(5-aminopentyl)-N-hydroxy-butanediamide], in data set [1], the “affinity for calcium (Ka)” value is listed as 10^2. In addition, the stability in solution entry in data set [2] (concentrated solution, on evaporation) was “prone to decomposition in concentrated solution”. The stability as solid result in data set [2] (solid) was “reasonably stable solid”. Further, the oral absorption entry in data set [3] is recorded as “not well-absorbed orally”. In data set [4] (long term therapy), the “accumulation of hepatic iron” value was “slows accumulation of hepatic iron” and the “progression of hepatic fibrosis” value is reported as “retards or eliminates progression of hepatic fibrosis”. Also, the iron excretion result in data set [4] (patients with secondary iron overload from multiple transfusions) is reported as “promotes iron excretion”. Moreover, in data set [5], the “affinity for ferric iron (Ka)” value was 10^31.
